Measurements from patent US12577201B2, “Glutamine analogs” (Jacobio Pharmaceuticals Co., Ltd., priority 2020, dated 2026).

Tests used:
[1] = Plasma stability, monkey plasma; details: 1 μM, 37° C., 4 hours
Description: (§1) For metabolic stability, plasma from dog, monkey, swine and human were used. For stability, prodrugs (1 μM) were spiked in respective solutions and incubated in an orbital shaker at 37° C. 50 μL aliquots of the mixture in duplicate were removed, and the reaction quenched by addition of four times the volume of ice cold acetonitrile spiked with the internal standard (Dexamethasone 100 ng/mL). […] 100 μL of the supernatant was diluted with 100 μL of water and transferred to the 0.6 mL plastic tubes on 96-well plate. Prodrug disappearance was monitored over time using a liquid chromatography and tandem mass spectrometry (LC-MS/MS).
(§2) For LC-MS/MS, prodrugs were analyzed on a ExionLC AD HPLC system coupled to REF Triple Quad 5500+ mass spectrometer with an ESI interface on an Phenomenex Kinetex 5 m C18 100A (2.1*50) mm UPLC column. The autosampler was temperature controlled and was operated at 4° C. The mobile phase used for the chromatographic separation was composed of acetonitrile/water containing 0.10% formic acid and will run at a flow rate of 0.6 mL/min for 3.5 min using gradient elution. The column effluent was monitored using […], equipped with an electrospray probe set in the positive ionization mode. Samples were introduced into the ionization source through a heated nebulized probe (400° C.). Disappearance of prodrugs will be measured from ratio of peak areas of analyte to IS.
(§3) For quantification of compound remaining, disappearance of prodrugs was measured from ratio of peak areas of analyte to IS.

[2] = Plasma stability, swine plasma; details: 1 μM, 37° C., 4 hours
Description: as §1, §2, §3

[3] = Stability in liver microsomes, monkey; type: in vitro ADME; details: 60 minutes, read-out: In vitro Clint
Description: (§4) For metabolic stability, microsomes from human, monkey, dog, rat and mouse were used. For stability, prodrugs (1 μM) were spiked in each microsomes matrix and incubated in an orbital shaker at 37° C. Aliquots of 50 μL were taken from the reaction solution at 0, 15, 30, 45 and 60 min. The reaction was stopped by the addition of 4 volumes of cold acetonitrile with IS (100 nM alprazolam, 200 nM labetalol, 200 nM caffeine and 2 μM ketoprofen). Samples were centrifuged at 3, 220 g for 40 minutes. Aliquot of 100 μL of the supernatant was mixed with 100 μL of ultra-pure H2O and then used for LC-MS/MS analysis.
(§5) For LC-MS/MS, prodrugs were analyzed on an API 4000 instrument from AB Inc (Canada) with an ESI interface coupled to Shimadzu LC system on an Waters XSelect HSS T3 C18, 2.5 m, 2.1×30 mm column.
(§6) For data analysis, peak areas were determined from extracted ion chromatograms. The slope value, k, was determined by linear regression of the natural logarithm of the remaining percentage of the parent drug vs. incubation time curve. The in vitro half-life (in vitro t1/2) was determined from the slope value: in vitro t1/2=−(0.693/k)
(§7) Conversion of the in vitro t1/2 (min) into the in vitro intrinsic clearance (in vitro CLint, in μL/min/mg protein) was done using the following equation (mean of duplicate determinations): […]

[4] = Body weight of C57BL/6 mice bearing MC38 tumors (Example 9); type: in vivo, Mus musculus; details: C57BL/6, MC38, 2 μmol/kg S.C. QD
Description: The treatments were started when the mean tumor size reached 79-118 mm^3 (average tumor size 96 mm^3). Each group contained 8 tumor bearing mice. Group 1 was treated with Vehicle (10% DMSO+90% Saline), S.C., QD. Group 2 was given treatments with reference compound A at 2 μmol/kg, S.C., QD. Group 3 was given treatments with compound 2 at 2 μmol/kg, S.C., QD.
(§8) In vivo efficacy was examined according to absolute tumor growth inhibition (TGI) and the safety was evaluated according to weight change and survival in mice.

[5] = Stability in liver microsomes, rat; type: in vitro ADME; details: 60 minutes, read-out: In vitro Clint
Description: as §4, §5, §6, §7

[6] = Body weight of CES1c -/- mice bearing MC38 tumors (Example 10); type: in vivo; details: CES1c -/- mouse, MC38, 2 μmol/kg S.C. QD; for BW Change (%): D6 to D26
Description: The treatments were started when the mean tumor size reached 52-132 mm^3 (average tumor size 95 mm^3). Each group contained 5 tumor bearing mice. Group 1 was treated with Vehicle (10% DMSO+90% Saline), S.C., QD(Subcutaneous injection, quaque die). Group 2 was given treatments with reference compound A at 2 μmol/kg, S.C., QD. Group 3 was given treatments with compound 2 at 2 μmol/kg, S.C., QD.
as §8

[7] = system: MC38 tumor cells; experiment: Anti-tumor efficacy in MC38 model in CES1c -/- mouse (Example 10); type: in vivo; details: for TV (mm^3) (Mean ± SEM) D6 / TV (mm^3) (Mean ± SEM) D9 / TV (mm^3) (Mean ± SEM) D12 / TV (mm^3) (Mean ± SEM) D15 / TV (mm^3) (Mean ± SEM) D20 / TV (mm^3) (Mean ± SEM) D23 / T/C (%) / TGI (%) / TV (mm^3) (Mean ± SEM) D26: MC38, 2 μmol/kg S.C. QD; for T/C (%) / TGI (%) / TV (mm^3) (Mean ± SEM) D26 / TV (mm^3) at D26 (Mean ± SEM): D26; for TV (mm^3) at D26 (Mean ± SEM): Table 9, MC38, 2 μmol/kg S.C. QD
Description: Animal species: Mus musculus; Strain: C57BL/6-Ces1c^emISmoc; Age: 6-8 weeks; Sex: female. (Shanghai Model Organisms). The MC38 tumor cells were maintained in vitro in DMEM medium supplemented with 10% FBS at 37° C., 5% CO2. The cells growing in an exponential growth phase were harvested and counted for tumor inoculation. The culture MC38 were harvested, re-suspended in PBS containing 50% Matrigel at a density of 1×10^7 cells/mL. Each mouse was inoculated subcutaneously in the right flank region with 1×10^6 in 0.1 mL of PBS containing 50% Matrigel for tumor development.
The treatments were started when the mean tumor size reached 52-132 mm^3 (average tumor size 95 mm^3). Each group contained 5 tumor bearing mice. Group 1 was treated with Vehicle (10% DMSO+90% Saline), S.C., QD(Subcutaneous injection, quaque die).
as §8
Statistical analysis of difference in tumor volume among the groups was performed using one-way ANOVA followed by individual comparisons using Games-Howell post-hoc test (equal variance not assumed). All data was analyzed using SPSS 22.0 software.

[8] = Stability in liver microsomes, dog; type: in vitro ADME; details: 60 minutes, read-out: In vitro Clint
Description: as §4, §5, §6, §7

[9] = Stability in liver microsomes, mouse; type: in vitro ADME; details: 60 minutes, read-out: In vitro Clint
Description: as §4, §5, §6, §7

| Structure (SMILES) | plasma stability (compound remaining) [1] | plasma stability (compound remaining) [2] | microsomal CLint at 1 μM [3] [µL/min/mg] | BW(g) (Mean ± SEM) Beginning (D6) [4] | BW(g) (Mean ± SEM) End (D21) [4] | microsomal CLint at 1 μM [5] [µL/min/mg] | tolerability / body weight loss [6] | BW(g) (Mean ± SEM) Beginning (D6) [6] | BW Change (%) [6] | BW(g) (Mean ± SEM) End (D26) [6] | TV (mm^3) (Mean ± SEM) D6 [7] | TV (mm^3) (Mean ± SEM) D9 [7] | TV (mm^3) (Mean ± SEM) D12 [7] | TV (mm^3) (Mean ± SEM) D15 [7] | TV (mm^3) (Mean ± SEM) D20 [7] | TV (mm^3) (Mean ± SEM) D23 [7] | T/C (%) [7] [%] | TGI (%) [7] [%] | TV (mm^3) (Mean ± SEM) D26 [7] | TV (mm^3) at D26 (Mean ± SEM) [7] [mm^3] | further results |
| --- | --- | --- | --- | --- | --- | --- | --- | --- | --- | --- | --- | --- | --- | --- | --- | --- | --- | --- | --- | --- | --- |
| CO[C@@H](C)C(=O)N[C@@H](CCC(=O)C=[N+]=[N-])C(=O)OC(C)C [Compound 2, isopropyl (S)-6-diazo-2-((S)-2-methoxypropanamido)-5-oxohexanoate] | substantially intact | substantially intact | 31.8 | 21.7 ± 0.2 | 22.4 ± 0.2 | 62.4 | well-tolerated | 19.1 ± 0.3 | +2.4% | 19.5 ± 0.3 | 95 ± 11 | 193 ± 20 | 103 ± 15 | 131 ± 21 | 169 ± 19 | 219 ± 21 | 14.0 | 86.0 | 313 ± 35 | 313 ± 35 | microsomal CLint at 1 μM [8]: 12.7 µL/min/mg; microsomal CLint at 1 μM [9]: 67.1 µL/min/mg |
| CC(=O)N[C@@H](Cc1c[nH]c2ccccc12)C(=O)N[C@@H](CCC(=O)C=[N+]=[N-])C(=O)OC(C)C [Reference compound A, reference compound] | substantially intact | substantially intact | 393 | 21.9 ± 0.3 | 22.5 ± 0.4 | 95.2 | some body weight loss | 19.2 ± 0.2 | −8.3% | 17.6 ± 0.9 | 95 ± 6 | 275 ± 33 | 147 ± 5 | 195 ± 23 | 196 ± 33 | 183 ± 33 | 12.3 | 87.7 | 274 ± 81 | 274 ± 81 | BW Change (%) ([4]; D6 to D21): +2.8%; microsomal CLint at 1 μM [8]: 60.4 µL/min/mg; microsomal CLint at 1 μM [9]: 153 µL/min/mg |
